Consider 26 compounds from article PMC6984732, “Thymidine phosphorylase and prostrate cancer cell proliferation inhibitory activities of synthetic 4-hydroxybenzohydrazides: In vitro, kinetic, and in silico studies” (PLoS ONE, 2020).

Assay [1] addresses T1, thymidine phosphorylase (TP) (Escherichia coli, UniProt P07650).
T1 construct: purchased Sigma Aldrich, USA; host or cells: E. coli
Kind of assay: Kinetic studies on thymidine phosphorylase (Lineweaver-Burk, secondary re-plot, Dixon plot). It is filed as biochemical, E. coli. Conditions: from Lineweaver-Burk plot; thymidine as variable substrate. On the procedure: Kinetic studies were carried out to identify the mechanism of inhibition by these compounds. Inhibitor could bind with the enzyme in multiple ways, such as in competitive, non-competitive, mixed or uncompetitive way. In kinetic assay, the enzyme (0.058 U/200 μL) was incubated with different concentrations of inhibitor for 10 min at 30°C. The reaction was then initiated by adding different concentrations (0.1875–1.5 mM) of substrate (thymidine), and the resulting degradation of thymidine was measured continuously at 290 nm for 10 min on ELISA plate reader. Every experiment was run in triplicate.
Lineweaver-Burk plot was plotted to determine the type of inhibition. This was accomplished by plotting the reciprocal of the rate of reaction against the reciprocal of the substrate concentration. Ki values were determined by secondary re-plot of Lineweaver-Burk plot, and reconfirmed by Dixon plot.

For assay [2], the target named is T1, thymidine phosphorylase (TP). Kind of assay: Thymidine phosphorylase inhibition assay (spectrophotometric, 290 nm). It is filed as biochemical, E. coli. Conditions: for inhibition: read-out: Percent Inhibition of thymidine phosphorylase, 10 μL of test compound (0.5 mM in dimethylsulfoxide) per well; for inhibition / inhibition at 500 µM (stock): <50% regarded inactive; for inhibition at 500 µM (stock): 10 μL of test compound (0.5 mM in dimethylsulfoxide) per well, read-out: Percent Inhibition of thymidine phosphorylase. As to the method: Since human TP is not commercially available, we used commercially available recombinant TP (expressed in E. coli) enzyme. Primary sequence of TP is mostly conserved throughout the evolution and mammalian TP share 39% sequence similarity with TP of E. coli. The mammalian enzyme also shares 65–70% similarity with the active site residues of E. coli TP enzyme.
Assay for TP inhibition was performed spectrophotometrically, following the method of Bera et al. with some modifications. Enzyme TP catalyzed the reversible phosphorolysis of thymidine to thymine and 2-deoxyribose-1-phosphate. Reaction mixture contained 150 μL of potassium phosphate buffer (pH 7.0, 50 mM), 20 μL of enzyme (0.058 U/well), and 10 μL of test compound (0.5 mM in dimethylsulfoxide). The reaction mixture was incubated for 10 min at 30°C. 20 μL of substrate (1.5 mM) was then added and change in absorbance was recorded after every minute for a total time period of 10 minutes at 290 nm in ELISA plate reader (Spectra Max-340, Molecular Devices, CA, USA).
We have used the 96-well UV-plates, purchased from Corning (Catalogue No. COSTAR 3635, Lot No. 00912050). […] We then added the substrate (thymidine), and recorded the final readings.

Assay [3] has as its system prostate cancer (PC3) cells. The assay is described as follows: MTT anti-proliferative assay, PC3 cells. It is filed as cell-based. Conditions: Homo sapiens, PC-3, 48 h incubation, prostate cancer cell line, read-out: IC50 ± Standard Deviation, PC3 Cell Line. As to the method:
(§1) Anti-proliferative activity of active compounds was evaluated by using the standard MTT (3-[4,5-dimethylthiazole-2-yl]-2,5-diphenyl-tetrazolium bromide) colorimetric assay in 96-well plate.
(§2) It is a colorimetric assay that measures the reduction of MTT by mitochondrial enzyme i.e. succinate dehydrogenase. The MTT enters into the mitochondria of cell, where it is reduced to an insoluble formazan salt. As reduction of MTT can only occur in metabolically active cells, the level of activity is actually a measure of the viability of the cells.
(§3) Mouse fibroblast normal cell line 3T3, and prostate cancer line (PC3) were cultured separately in DMEM, supplemented with 5% of FBS, 100 IU/mL of penicillin and 100 μg/mL of streptomycin, and kept at 37°C in 5% CO2 incubator. For the preparation of cell culture, 100 μL/well of cell solution (5 x 10^4 cells/mL) was added into 96-well plate. The plate was incubated for overnight, and fresh medium was added after the removal of old medium. The test compounds were also added in different concentrations into the plate, and again incubated for 48 h. After the completion of this incubation period, 200 μL MTT (0.5 mg/mL) was added, and plate was again incubated for 4 h, after this final incubation, 100 μL of DMSO was added to each well. The level of MTT reduction to formazan was evaluated by change in absorbance at 540 nm for 3T3, and 570 nm for PC3 using a micro-plate reader (Spectra Max plus, Molecular Devices, CA, USA).
On the technique in general: Tetrazolium assays rely on reduction of a dye to a coloured formazan, in cell work by metabolically active cells.

The test system of assay [4] is mouse fibroblast (3T3) cells. The assay is described as follows: MTT anti-proliferative (cytotoxicity) assay, 3T3 cells. It is filed as cell-based. Conditions: mouse fibroblast normal cell line, read-out: IC50 ± Standard Deviation, 3T3 Cell Line. As to the method: as §1, §2, §3

Like-named read-outs stand apart in the source and are kept apart here.

T1 sequence (P07650 whole entry): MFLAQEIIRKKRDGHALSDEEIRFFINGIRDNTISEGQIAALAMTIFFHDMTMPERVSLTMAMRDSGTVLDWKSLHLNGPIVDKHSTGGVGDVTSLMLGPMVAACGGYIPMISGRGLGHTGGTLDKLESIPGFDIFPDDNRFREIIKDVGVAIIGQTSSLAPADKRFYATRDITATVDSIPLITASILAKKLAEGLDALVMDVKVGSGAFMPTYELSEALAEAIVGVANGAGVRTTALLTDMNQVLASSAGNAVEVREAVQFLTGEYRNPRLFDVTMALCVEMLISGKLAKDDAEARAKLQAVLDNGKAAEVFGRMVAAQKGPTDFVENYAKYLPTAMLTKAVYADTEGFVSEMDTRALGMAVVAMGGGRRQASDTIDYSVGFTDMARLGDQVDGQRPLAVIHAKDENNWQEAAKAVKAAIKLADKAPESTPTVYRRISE

As usually defined, the inhibition is the percentage by which the read-out fell short of the control. Turning to `O=c1[nH]c(=O)c2cc[nH]c2[nH]1` [7-Deazaxanthine, reference compound], the “Inhibition Type” value in assay [1] is “Non-competitive”. For the same compound, the inhibition in assay [2] was found to be 99%.

Usually IC50 stands for the concentration needed to halve the response being measured. For `O=C(N/N=C/c1ccccc1O)c1ccc(O)cc1` [Compound 1, 4-Hydroxyl-N'-[(E)-(2^′-hydroxylphenyl)methylidene]benzohydrazide], the half-maximal inhibitory concentration (IC50) in assay [3] is 7.5 ± 0.4 µM; in assay [4] (NIH3T3, 48 h incubation), 13.1 ± 0.3 µM. Moreover, in assay [2], the inhibition was determined as 99.6%.

For `O=C(N/N=C/c1cccc(O)c1O)c1ccc(O)cc1` [Compound 2, N'-[(E)-(2^′,3^′-Dihydroxylphenyl)methylidene]-4-hydroxylbenzohydrazide], the IC50 in assay [3] worked out at 7.6 ± 0.4 µM; in assay [4] (NIH3T3, 48 h incubation), 23 ± 1 µM. Further, the inhibition in assay [2] worked out at 99.9%.

Consider `O=C(N/N=C/c1ccc(O)c(O)c1)c1ccc(O)cc1` [Compound 3, N'-[(E)-(3^′,4^′-Dihydroxylphenyl)methylidene]-4-hydroxylbenzohydrazide], for which the IC50 in assay [3] was above 30 µM; in assay [4] (NIH3T3, 48 h incubation) it was 23.5 ± 1.1 µM. Also, in assay [1], the “Inhibition Type” value was “Uncompetitive”. Besides, in assay [2], the inhibition is 99.3%.

In the case of `O=C(N/N=C/c1c(O)cc(O)cc1O)c1ccc(O)cc1` [Compound 4, 4-Hydroxyl-N'-[(E)-(2^′,4^′,6^′-trihydroxylphenyl)methylidene]benzohydrazide], in assay [2], the inhibition at 500 µM (stock) was found to be 8%.

With `O=C(N/N=C/c1ccc(O)c(O)c1O)c1ccc(O)cc1` [Compound 5, 4-Hydroxyl-N'-[(E)-(2^′,3^′,4^′-trihydroxylphenyl)methylidene]benzohydrazide], in assay [2], the inhibition at 500 µM (stock) was determined as 26%.

For `O=C(N/N=C/c1cccc(O)c1)c1ccc(O)cc1` [Compound 6, 4-Hydroxyl-N'-[(E)-(3^′-hydroxylphenyl)methylidene]benzohydrazide], the 50% inhibitory concentration (IC50) was above 30 µM in assay [3] and above 30 µM in assay [4] (NIH3T3, 48 h incubation). In assay [2], the inhibition is 99%.

As to `O=C(N/N=C/c1cc(O)c(O)cc1O)c1ccc(O)cc1` [Compound 7, 4-Hydroxyl-N'-[(E)-(2^′,4^′,5^′-trihydroxylphenyl)methylidene]benzohydrazide], the half-maximal inhibitory concentration (IC50) in assay [3] is above 30 µM; in assay [4] (NIH3T3, 48 h incubation), 3.8 ± 0.4 µM. Moreover, the inhibition in assay [2] stood at 99%.

With `O=C(N/N=C/c1ccc(O)cc1)c1ccc(O)cc1` [Compound 8, 4-Hydroxyl-N'-[(E)-(4^′-hydroxylphenyl)methylidene]benzohydrazide], the IC50 in assay [3] was above 30 µM; in assay [4] (NIH3T3, 48 h incubation) it was above 30 µM. The inhibition in assay [2] came out at 99%.

As for `COc1ccc(/C=N/NC(=O)c2ccc(O)cc2)cc1` [Compound 10, 4-Hydroxyl-N'-{(E)-[4^′-(methoxy)phenyl]methylidene}benzohydrazide], the 50% inhibitory concentration (IC50) was above 30 µM in assay [3] and above 30 µM in assay [4] (NIH3T3, 48 h incubation). For the same compound, the inhibition in assay [2] came out at 99.8%.

Consider `O=C(N/N=C/c1cccc(Cl)c1)c1ccc(O)cc1` [Compound 11, N'-[(E)-(3^′-Chlorophenyl)methylidene]-4-hydroxylbenzohydrazide], for which the 50% inhibitory concentration (IC50) in assay [3] was above 30 µM; in assay [4] (NIH3T3, 48 h incubation), above 30 µM. For the same compound, the inhibition in assay [2] is 99%.

In the case of `COc1ccccc1/C=N/NC(=O)c1ccc(O)cc1` [Compound 12, 4-Hydroxyl-N'-{(E)-[2^′-(methoxy)phenyl]methylidene}benzohydrazide], the IC50 in assay [3] is above 30 µM; in assay [4] (NIH3T3, 48 h incubation), above 30 µM. The inhibition in assay [2] was 99%.

Regarding `COc1ccc(/C=N/NC(=O)c2ccc(O)cc2)cc1OC` [Compound 13, N'-{(E)-[3^′,4^′-Bis(methoxy)phenyl]methylidene}-4-hydroxylbenzohydrazide], the IC50 in assay [3] is above 30 µM; in assay [4] (NIH3T3, 48 h incubation), above 30 µM. Besides, in assay [2], the inhibition was found to be 99%.

Take `O=C(N/N=C/c1ccc(Cl)cc1Cl)c1ccc(O)cc1` [Compound 15, N'-[(E)-(2^′,4^′-Dichlorophenyl)methylidene]-4-hydroxylbenzohydrazide]: the inhibition at 500 µM (stock) in assay [2] came out at 20%.

For `Cc1ccccc1/C=N/NC(=O)c1ccc(O)cc1` [Compound 16, 4-Hydroxyl-N'-[(E)-(2^′-methylphenyl)methylidene]benzohydrazide], the IC50 was above 30 µM in assay [3] and above 30 µM in assay [4] (NIH3T3, 48 h incubation). Moreover, the inhibition in assay [2] came to 99%.

For `COc1cccc(/C=N/NC(=O)c2ccc(O)cc2)c1O` [Compound 19, 4-Hydroxyl-N'-[(E)-(2^′-hydroxyl-3^′-methoxyphenyl)methylidene]benzohydrazide], the concentration for half-maximal inhibition (IC50) is 9.6 ± 0.3 µM in assay [3]; 181.5 ± 1.6 µM in assay [2] (recombinant TP expressed in E. coli, substrate thymidine, pH 7.0, 30°C, N.A. = not active, read-out: IC50 (μM ± SEM), thymidine phosphorylase inhibition); 23.6 ± 0.2 µM in assay [4] (NIH3T3, 48 h incubation). For the same compound, in assay [2], the inhibition was determined as 86.9%.

With `O=C(N/N=C/c1cc(Br)ccc1O)c1ccc(O)cc1` [Compound 20, N'-[(E)-(5^′-Bromo-2^′-hydroxylphenyl)methylidene]-4-hydroxylbenzohydrazide], the inhibition at 500 µM (stock) in assay [2] came out at 38.6%.

For `O=C(N/N=C/c1cc(Cl)ccc1O)c1ccc(O)cc1` [Compound 21, N'-[(E)-(5^′-Chloro-2^′-hydroxylphenyl)methylidene]-4-hydroxylbenzohydrazide], the inhibition in assay [2] came out at 12.4%.

As for `COc1ccc(O)c(/C=N/NC(=O)c2ccc(O)cc2)c1` [Compound 23, 4-Hydroxyl-N'-{(E)-[2^′-hydroxyl-5^′-(methoxy)phenyl]methylidene}benzo-hydrazide], the IC50 in assay [3] came out at 10.5 ± 0.5 µM; in assay [4] (NIH3T3, 48 h incubation) it was 15.3 ± 0.9 µM. Further, the inhibition in assay [2] worked out at 99.9%.

For the compound `CCOc1cccc(/C=N/NC(=O)c2ccc(O)cc2)c1O` [Compound 24, N'-{(E)-[3^′-Ethoxy-2^′-hydroxylphenyl]methylidene}-4-hydroxylbenzohydrazide], the 50% inhibitory concentration (IC50) was found to be 6.5 ± 0.2 µM in assay [3] and 9.4 ± 0.3 µM in assay [4] (NIH3T3, 48 h incubation). The inhibition in assay [2] was 82.4%.

Take `C/C(=N\NC(=O)c1ccc(O)cc1)c1ccccc1O` [Compound 25, 4-Hydroxyl-N'-[(E)-1-(2^′-hydroxylphenyl)ethylidene]benzohydrazide]: the inhibition in assay [2] was 25%.

For the compound `C/C(=N\NC(=O)c1ccc(O)cc1)c1ccc(O)cc1O` [Compound 26, N'-[(E)-1-(2^′,4^′-Dihydroxylphenyl)ethylidene]-4-hydroxylbenzohydrazide], the inhibition in assay [2] was 30%.

Consider `C/C(=N\NC(=O)c1ccc(O)cc1)c1cc(O)ccc1O` [Compound 28, N'-[(E)-1-(2^′,5^′-Dihydroxylphenyl)ethylidene]-4-hydroxylbenzohydrazide], for which the half-maximal inhibitory concentration (IC50) was above 30 µM in assay [3] and 20.2 ± 0.9 µM in assay [4] (NIH3T3, 48 h incubation). In assay [2], the inhibition stood at 99.3%.

In the case of `C[C@@H]1C[C@@H]([C@H](O)CC2CC(=O)NC(=O)C2)C(=O)[C@@H](C)C1` [Cyclohexamide, cyclohexamide, reference compound], the half-maximal inhibitory concentration (IC50) in assay [4] (48 h incubation) stood at 0.26 ± 0.1 µM.

Turning to `COc1cccc2c1C(=O)c1c(O)c3c(c(O)c1C2=O)C[C@@](O)(C(=O)CO)C[C@@H]3O[C@H]1C[C@H](N)[C@H](O)[C@H](C)O1` [Doxorubicin, doxorubicin, reference compound], in assay [3], the half-inhibitory concentration (IC50) is 0.91 ± 0.1 µM.

As for `N=C1CCCN1Cc1nc(O)nc(O)c1Cl` [tipiracil, reference compound], the inhibition in assay [2] stood at 99%.
